Source: ChEMBL document CHEMBL1140490, “Design and synthesis via click chemistry of 8,9-anhydroerythromycin A 6,9-hemiketal analogues with anti-MRSA and -VRE activity” (2007)
In brackets after ≈: the same amount, converted by molar mass.

Tests used:
Staphylococcus aureus [1] = test: Antimicrobial activity against methicillin-resistant Staphylococcus aureus N315 IR94-HR-1 by serial dilution method; format: functional
Enterococcus faecalis = test: Antimicrobial activity against vancomycin-resistant Enterococcus faecalis NCTC-12201 by serial dilution method; format: functional
Staphylococcus aureus [2] = test: Antimicrobial activity against methicillin-resistant Staphylococcus aureus 92-1191 by serial dilution method; format: functional
Staphylococcus aureus [3] = test: Antimicrobial activity against Staphylococcus aureus Smith by serial dilution method; format: functional
Escherichia coli = test: Antimicrobial activity against Escherichia coli NIHJ JC-2 by serial dilution method; format: functional
Staphylococcus aureus [4] = test: (§1) Antimicrobial activity against Staphylococcus aureus 8325 by serial dilution method; format: functional
Staphylococcus aureus [5] = test: Antimicrobial activity against Staphylococcus aureus ISP217 by serial dilution method; format: functional
Staphylococcus aureus [6] = test: Antimicrobial activity against methicillin-resistant Staphylococcus aureus 70 by serial dilution method; format: functional
Staphylococcus aureus [7] = test: Antimicrobial activity against Staphylococcus aureus ISP447 by serial dilution method; format: functional
Staphylococcus aureus [8] = test: as §1; format: functional; remark: listed apart in the source
Staphylococcus aureus [9] = test: Antimicrobial activity against Staphylococcus aureus FDA209P by serial dilution method; format: functional
Staphylococcus aureus [10] = test: Antimicrobial activity against methicillin-resistant Staphylococcus aureus N315 IR94 by serial dilution method; format: functional
Enterococcus faecium = test: Antimicrobial activity against vancomycin-resistant Enterococcus faecium NCTC-12203 by serial dilution method

| SMILES | MIC (Staphylococcus aureus [1]) [µg/mL] | MIC (Enterococcus faecalis) [µg/mL] | MIC (Staphylococcus aureus [2]) [µg/mL] | MIC (Staphylococcus aureus [3]) [µg/mL] | MIC (Escherichia coli) [µg/mL] | MIC (Staphylococcus aureus [4]) [µg/mL] | MIC (Staphylococcus aureus [5]) [µg/mL] | MIC (Staphylococcus aureus [6]) [µg/mL] | MIC (Staphylococcus aureus [7]) [µg/mL] | MIC (Staphylococcus aureus [8]) [µg/mL] | MIC (Staphylococcus aureus [9]) [µg/mL] | MIC (Staphylococcus aureus [10]) [µg/mL] | MIC (Enterococcus faecium) [µg/mL] |
| --- | --- | --- | --- | --- | --- | --- | --- | --- | --- | --- | --- | --- | --- |
| CC[C@H]1OC(=O)[C@H](C)[C@@H](OCc2cn(CSc3ccccc3)nn2)[C@H](C)[C@@H](O[C@@H]2O[C@H](C)C[C@H](N(C)C)[C@H]2O)[C@@]2(C)CC(C)=C(O2)[C@H](C)[C@@H](OC(=O)C(C)C)[C@]1(C)OC(=O)C(C)C | 8 (≈ 8.88 µM) | 16 (≈ 17.8 µM) | 16 (≈ 17.8 µM) | 32 (≈ 35.5 µM) | > 128 | 16 (≈ 17.8 µM) | 16 (≈ 17.8 µM) | 16 (≈ 17.8 µM) | 16 (≈ 17.8 µM) | 16 (≈ 17.8 µM) | 16 (≈ 17.8 µM) | 8 (≈ 8.88 µM) | 16 (≈ 17.8 µM) |
| CC[C@H]1OC(=O)[C@H](C)[C@@H](OCc2cn(-c3cccnc3)nn2)[C@H](C)[C@@H](O[C@@H]2O[C@H](C)C[C@H](N(C)C)[C@H]2O)[C@@]2(C)CC(C)=C(O2)[C@H](C)[C@@H](OC(=O)C(C)C)[C@]1(C)OC(=O)C(C)C | 16 (≈ 18.7 µM) | 32 (≈ 37.4 µM) | 32 (≈ 37.4 µM) | 64 (≈ 74.8 µM) | > 128 | 128 (≈ 150 µM) | 16 (≈ 18.7 µM) | 16 (≈ 18.7 µM) | 64 (≈ 74.8 µM) | 16 (≈ 18.7 µM) | 32 (≈ 37.4 µM) | 16 (≈ 18.7 µM) | 16 (≈ 18.7 µM) |
| CC[C@H]1OC(=O)[C@H](C)[C@@H](O)[C@H](C)[C@@H](O[C@@H]2O[C@H](C)C[C@H](N(C)C)[C@H]2OC(C)=O)[C@@]2(C)CC(C)=C(O2)[C@H](C)[C@@H](OC(=O)C(C)C)[C@]1(C)OC(=O)C(C)C | 64 (≈ 86.5 µM) | 64 (≈ 86.5 µM) | 64 (≈ 86.5 µM) | > 128 | > 128 | 128 (≈ 173 µM) | 64 (≈ 86.5 µM) | 64 (≈ 86.5 µM) | 128 (≈ 173 µM) | 64 (≈ 86.5 µM) | 64 (≈ 86.5 µM) | 64 (≈ 86.5 µM) | 64 (≈ 86.5 µM) |
| C#CCO[C@H]1[C@H](C)[C@@H](O[C@@H]2O[C@H](C)C[C@H](N(C)C)[C@H]2O)[C@@]2(C)CC(C)=C(O2)[C@H](C)[C@@H](OC(=O)C(C)C)[C@](C)(OC(=O)C(C)C)[C@@H](CC)OC(=O)[C@@H]1C | 16 (≈ 21.7 µM) | 16 (≈ 21.7 µM) | 16 (≈ 21.7 µM) | 32 (≈ 43.5 µM) | > 128 | 32 (≈ 43.5 µM) | 16 (≈ 21.7 µM) | 16 (≈ 21.7 µM) | 32 (≈ 43.5 µM) | 16 (≈ 21.7 µM) | 32 (≈ 43.5 µM) | 16 (≈ 21.7 µM) | 16 (≈ 21.7 µM) |
| CC[C@H]1OC(=O)[C@H](C)[C@@H](OCc2cn(-c3cccc4ccccc34)nn2)[C@H](C)[C@@H](O[C@@H]2O[C@H](C)C[C@H](N(C)C)[C@H]2O)[C@@]2(C)CC(C)=C(O2)[C@H](C)[C@@H](OC(=O)C(C)C)[C@]1(C)OC(=O)C(C)C | 16 (≈ 17.7 µM) | 32 (≈ 35.4 µM) | 32 (≈ 35.4 µM) | 64 (≈ 70.7 µM) | > 128 | 64 (≈ 70.7 µM) | 16 (≈ 17.7 µM) | 16 (≈ 17.7 µM) | 32 (≈ 35.4 µM) | 16 (≈ 17.7 µM) | 32 (≈ 35.4 µM) | 16 (≈ 17.7 µM) | 16 (≈ 17.7 µM) |
| CC[C@H]1OC(=O)[C@H](C)[C@@H](OCc2cn(CCO)nn2)[C@H](C)[C@@H](O[C@@H]2O[C@H](C)C[C@H](N(C)C)[C@H]2O)[C@@]2(C)CC(C)=C(O2)[C@H](C)[C@@H](OC(=O)C(C)C)[C@]1(C)OC(=O)C(C)C | 64 (≈ 77.8 µM) | 128 (≈ 156 µM) | 128 (≈ 156 µM) | > 128 | > 128 | 128 (≈ 156 µM) | 128 (≈ 156 µM) | 64 (≈ 77.8 µM) | > 128 | 64 (≈ 77.8 µM) | 64 (≈ 77.8 µM) | 64 (≈ 77.8 µM) | 64 (≈ 77.8 µM) |
| CC[C@H]1OC(=O)[C@H](C)[C@@H](O[C@H]2C[C@@](C)(OC)[C@@H](O)[C@H](C)O2)[C@H](C)[C@@H](O[C@@H]2O[C@H](C)C[C@H](N(C)C)[C@H]2O)[C@@]2(C)CC(C)=C(O2)[C@H](C)[C@@H](OC(=O)C(C)C)[C@]1(C)OC(=O)C(C)C | 16 (≈ 18.7 µM) | 64 (≈ 74.8 µM) | 32 (≈ 37.4 µM) | 16 (≈ 18.7 µM) | > 128 | 32 (≈ 37.4 µM) | 16 (≈ 18.7 µM) | 32 (≈ 37.4 µM) | 32 (≈ 37.4 µM) | 16 (≈ 18.7 µM) | 16 (≈ 18.7 µM) | 16 (≈ 18.7 µM) | 32 (≈ 37.4 µM) |
